For one assay, the target named is T1, proteasome (Rattus norvegicus, UniProt P28075).
T1 construct: endogenous in cells; host or cells: rat PC12 clonal lines (empty vector, or stably expressing human wild-type or A53T alpha-synuclein)
T1 sequence (P28075 60-263): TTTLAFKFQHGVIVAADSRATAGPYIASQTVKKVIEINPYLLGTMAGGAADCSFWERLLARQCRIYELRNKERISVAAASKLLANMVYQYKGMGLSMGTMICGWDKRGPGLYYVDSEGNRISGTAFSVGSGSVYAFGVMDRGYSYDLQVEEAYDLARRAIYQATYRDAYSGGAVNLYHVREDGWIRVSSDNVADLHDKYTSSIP
Description: Assay for chymotrypsin-like activity of the proteasome in PC12 cell lysates (LLVY-AFC substrate). Format: cell-based. The note with it: cells treated overnight with 0.5 μM inhibitor; lysate assayed with 100 μM LLVY-AFC, 37° C., 10 min. On the procedure: Cells from the different lines were triturated off the dish, centrifuged, and washed in PBS. The resulting pellets were resuspended in 200-500 μl of lysis buffer (10 mM Tris-HCl, pH 7.8, with 1 mM ATP, and 10% glycerol) (Figueiredo-Pereira et al., A new inhibitor of the chymotrypsin-like activity of the multicatalytic proteinase complex (20S proteasome) induces accumulation of ubiquitin-protein conjugates in a neuronal cell. J. Neurochem., 63:1578-1581, 1994). The cells were left for 20 min on ice and then lysed with 30 strokes of a Dounce homogenizer. The lysates were then centrifuged at 10,000×g for 10 min. Fifty micrograms of protein of the resulting supernatants was included in an assay buffer of 100 mM Tris-HCl, pH 8.0, 2 mM CaCl2, 1 mM ATP, and a 100 μM concentration of the fluorogenic substrate LLVY-7-amino-4-trifluoromethyl coumarin (AFC) (Enzyme Systems Products, Livermore, Calif.) in a total final volume of 1 ml. The assay was performed at 37° C. for 10 min (Figueiredo-Pereira et al., 1994, supra). The activity was then measured in a SLM 8000 fluorometer, with assay buffer without lysate as blank. The activity was linear with respect to the amount of protein (in the range of 25-200 μg of protein).

Assay [1] has as its system PC12 cell lines expressing A53T mutant α-synuclein. Kind of assay: Trypan blue assay of cell death in mutant A53T α-synuclein PC12 lines. The settings on record: 50 μM, data not shown. The assay is classed as cell-based, rat. The protocol: The day before the trypan blue assay, subconfluent cultures were rinsed twice with complete medium to remove cells at late stages of degeneration. The following day the cells were triturated off the dish and five drops of the cellular suspension were added in a tube together with five drops of Trypan blue solution (0.4%; Sigma-Aldrich, St. Louis, Mo.). After light mixing, the cells were placed on a glass slide, coverslipped, and visualized under 20× magnification. For each line, three fields of 100 cells each were assessed for the percentage of Trypan blue-positive cells. The results reported are the mean±SEM (n=3).
To test for potential involvement of caspases in cellular degeneration associated with expression of A53T α-synuclein, control, wild-type, and mutant lines were examined for basal caspase-3-like activity, as measured by cleavage of the fluorogenic substrate DEVD-AFC (15 μM; Enzyme Systems Products, Livermore, Calif.). No difference was found in basal activity among cell lines (data not shown). […] It can be concluded that PC12 cell lines expressing A53T mutant α-synuclein display enhanced cellular degeneration that appears nonapoptotic by morphological and biochemical criteria.

Where a SMILES comes first, the peptide text is derived from it. The star is where a group is joined. Cbz = O=C(OCc1ccccc1)*

Regarding `CC(C)C[C@@H](C=O)NC(=O)[C@H](CC(C)C)NC(=O)[C@H](CC(C)C)NC(=O)OCc1ccccc1` [MG132] (Cbz-Leu-Leu-Leu-aldehyde), at proteasome, the “chymotrypsin-like proteasomal activity remaining in lysates of treated cells” value was under 5%.

For Boc-aspartate-fluoromethyl ketone, in assay [1], the “effect on percentage of Trypan blue-positive cells” value is given as “did not affect”.

Values taken from US20040197315A1, “Dopaminergic cell lines stably expressing A53T alpha-synuclein and methods of using same” (priority 2002, published 2004).
